# Measurements as given in the supplement of paper PMC10307832.
# Columns and labels:
# Assay in all cases: relative viability (nuclei count vs DMSO), 5 days (fraction); higher = more cells survive
# [1] = compound: CCN1C(=O)C2=CC(=C(N=C2N(C1=O)C3CC3)N)C(=O)N + COc1cccc2cc(-c3nc([C@H]4CC[C@H](C(=O)O)CC4)n4ncnc(N)c34)[nH]c12 [OSI-027] (partner 0.5 µM)
# Method in brief: (§1)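 Relative viability is defined as nuclei in treated wells over nuclei in vehicle wells. Duplicate plates were run and medians reported. Lung cancer cell lines in 1536-well plates were dosed by pin tool one day after seeding, with one drug or with a fixed anchor-drug dose plus five library-drug doses (not always all listed) in √10 steps, and nuclei were counted after 5 days.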
# [2] = compound: CCN1C(=O)C2=CC(=C(N=C2N(C1=O)C3CC3)N)C(=O)N + Nc1ncn([C@H]2C[C@H](O)[C@@H](CO)O2)c(=O)n1 [Decitabine] (partner 2 µM)
# Method in brief: as §1
# [3] = compound: CCN1C(=O)C2=CC(=C(N=C2N(C1=O)C3CC3)N)C(=O)N + CCNC(=O)c1noc(-c2cc(C(C)C)c(O)cc2O)c1-c1ccc(CN2CCOCC2)cc1 [Luminespib] (partner 0.01 µM)
# Method in brief: as §1
# [4] = compound: CCN1C(=O)C2=CC(=C(N=C2N(C1=O)C3CC3)N)C(=O)N + COc1cc2c(Oc3ccc(NC(=O)C4(C(=O)Nc5ccc(F)cc5)CC4)cc3F)ccnc2cc1OCCCN1CCOCC1 [Foretinib] (partner 0.25 µM)
# Method in brief: as §1
# [5] = compound: CCN1C(=O)C2=CC(=C(N=C2N(C1=O)C3CC3)N)C(=O)N + Cc1nc(NC(=O)N2CCC[C@H]2C(N)=O)sc1-c1ccnc(C(C)(C)C(F)(F)F)c1 [Alpelisib] (partner 2 µM)
# Method in brief: as §1
Cell Line,relative viability ([1]; first compound 0.253 µM),relative viability ([1]; first compound 0.8 µM),relative viability ([1]; first compound 2.53 µM),relative viability ([1]; first compound 8 µM),relative viability ([2]; first compound 0.253 µM),relative viability ([2]; first compound 0.8 µM),relative viability ([2]; first compound 2.53 µM),relative viability ([2]; first compound 8 µM),relative viability ([3]; first compound 0.253 µM),relative viability ([3]; first compound 0.8 µM),relative viability ([3]; first compound 2.53 µM),relative viability ([3]; first compound 8 µM),relative viability ([4]; first compound 0.253 µM),relative viability ([4]; first compound 0.8 µM),relative viability ([4]; first compound 2.53 µM),relative viability ([4]; first compound 8 µM),relative viability ([5]; first compound 0.253 µM),relative viability ([5]; first compound 0.8 µM),relative viability ([5]; first compound 2.53 µM),relative viability ([5]; first compound 8 µM)
NCI-H322M,0.498,0.498,0.512,0.549,0.697,0.728,0.673,0.719,0.724,0.934,0.886,1,0.953,0.958,0.988,1.1,0.855,0.694,0.765,0.656
NCI-H1651,0.643,0.691,0.734,0.606,0.534,0.585,0.582,0.386,0.856,0.813,0.874,0.885,0.921,0.838,0.656,0.772,0.86,0.948,0.875,0.957
HARA,0.415,0.576,0.473,0.54,0.473,0.587,0.402,0.721,0.706,0.671,0.843,0.929,0.884,0.989,0.857,0.926,0.817,0.787,0.79,0.964
H3255,0.57,0.57,0.577,0.994,0.582,0.582,0.61,0.604,0.834,0.773,0.883,0.932,0.856,0.802,0.932,1.01,0.653,0.609,0.631,0.624
NCI-H441,0.686,0.746,0.703,0.583,0.305,0.244,0.265,0.258,0.287,0.34,0.419,0.35,0.925,0.82,0.956,0.995,0.957,0.756,0.637,0.598
ABC-1,0.438,0.474,0.538,0.469,0.996,–,1.17,1.05,0.869,0.4,0.639,0.518,1.19,0.873,0.908,1.05,1.23,0.751,1.11,0.969
NCI-H1437,0.939,0.867,0.919,0.894,0.654,0.578,0.591,0.509,1.1,1.06,1.1,1.16,1.23,1.21,1.19,1.21,0.956,1.12,0.973,1.04
HOP-62,0.96,0.919,0.795,0.883,0.242,0.218,0.161,0.184,1.03,0.899,0.926,0.945,1,1.11,1.03,1.03,1,1.06,0.778,0.964
EPLC-272H,0.277,0.258,0.266,0.277,0.362,0.376,0.399,0.379,0.253,0.227,0.465,0.445,0.84,0.662,0.613,0.686,0.801,0.868,0.901,0.942
COR-L 105,0.873,0.729,0.634,0.651,0.712,0.657,0.597,0.785,0.807,0.737,0.623,0.641,0.748,1.01,0.864,1.01,1.08,0.959,0.833,0.853
NCI-H2009,0.634,0.622,0.619,0.621,0.385,0.409,0.394,0.379,1.02,1.08,0.943,0.916,1.2,1.18,1.2,1.12,1.17,1.11,1.13,1.09
NCI-H23,0.494,0.64,0.587,0.583,0.315,0.305,0.289,0.32,0.195,0.203,0.228,0.214,0.942,1.13,1.07,1.11,0.638,0.741,0.615,0.789
NCI-H838,0.404,0.406,0.41,0.374,0.469,0.426,0.411,0.451,0.262,0.334,0.214,0.336,1.07,0.989,0.868,0.926,1.02,0.985,0.934,0.906
NCI-H1355,0.5,0.464,0.455,0.376,0.325,0.331,0.382,0.339,0.652,0.887,0.761,0.753,0.996,1.01,0.963,0.937,0.829,0.949,0.787,0.853
NCI-H1944,0.4,0.399,0.473,0.378,0.485,0.423,0.393,0.434,0.795,0.711,0.618,0.723,0.976,0.91,0.843,0.949,0.826,0.832,0.749,0.842
NCI-H2023,0.449,0.365,0.386,0.34,0.214,0.223,0.209,0.215,0.857,0.726,0.781,0.792,0.756,0.743,0.845,0.848,0.634,0.542,0.574,0.584

Cell Line,relative viability ([1]; first compound 0.253 µM),relative viability ([1]; first compound 0.8 µM),relative viability ([1]; first compound 2.53 µM),relative viability ([1]; first compound 8 µM),relative viability ([2]; first compound 0.253 µM),relative viability ([2]; first compound 0.8 µM),relative viability ([2]; first compound 2.53 µM),relative viability ([2]; first compound 8 µM),relative viability ([3]; first compound 0.253 µM),relative viability ([3]; first compound 0.8 µM),relative viability ([3]; first compound 2.53 µM),relative viability ([3]; first compound 8 µM),relative viability ([4]; first compound 0.253 µM),relative viability ([4]; first compound 0.8 µM),relative viability ([4]; first compound 2.53 µM),relative viability ([4]; first compound 8 µM),relative viability ([5]; first compound 0.253 µM),relative viability ([5]; first compound 0.8 µM),relative viability ([5]; first compound 2.53 µM),relative viability ([5]; first compound 8 µM)
NCI-H1395,0.62,0.587,0.697,0.593,0.698,0.75,0.707,0.609,0.711,0.599,0.747,0.619,1.01,0.868,0.952,0.991,0.958,1.04,1.01,0.976
NCI-H2087,0.437,0.671,0.636,0.55,0.324,0.251,0.297,0.298,0.229,0.193,0.132,0.189,1.04,1.25,1.08,1.12,1.09,1.07,1.12,1.08
PC-14,0.856,0.799,0.831,0.907,0.207,0.171,0.244,0.193,0.144,0.159,0.158,0.119,0.914,0.961,0.954,0.969,0.928,0.942,0.913,1.06
NCI-H1793,–,0.294,0.212,0.239,0.527,0.6,0.531,0.546,–,0.183,0.177,0.15,–,0.612,0.575,0.679,0.715,0.644,–,0.63
LC-2-ad,0.693,0.808,0.759,0.829,0.765,0.735,0.681,0.777,0.926,0.938,1.12,1.11,0.926,0.855,0.986,0.94,0.838,0.897,0.881,0.914
LOU-NH91,0.637,0.66,0.766,0.692,0.849,0.781,0.768,0.798,0.283,0.452,0.379,0.349,0.847,0.855,0.978,0.916,0.687,0.716,0.721,0.684
NCI-H1734,0.734,0.554,0.531,0.596,0.499,0.488,0.502,0.565,0.67,0.215,0.191,0.233,0.835,0.764,0.745,1.01,0.658,0.669,0.688,0.738
NCI-H520,0.296,0.315,0.346,0.304,0.483,0.48,0.474,0.428,0.236,0.201,0.246,0.3,0.544,0.709,0.827,0.899,0.89,0.765,0.962,0.923
SK-LU-1,0.414,0.381,0.353,0.369,0.63,0.72,0.782,0.669,0.177,0.201,0.194,0.215,0.925,0.799,0.839,1,1.1,0.992,1.04,1.38
NCI-H647,0.598,0.724,0.647,0.591,0.444,0.411,0.458,0.433,0.16,0.129,0.18,0.14,1.23,1.14,1.07,1.23,1.11,1.17,1.14,1.07
NCI-H1755,0.744,0.749,0.703,0.72,0.771,0.743,0.704,0.652,0.455,0.412,0.528,0.51,0.974,0.887,0.914,0.875,0.946,0.922,0.946,0.913
UMC-11,0.5,0.463,0.506,0.521,0.71,0.604,0.617,0.457,0.914,1.02,1.08,1.17,1.02,1.05,1.1,1.13,1.09,0.942,0.863,1.07
NCI-H650,0.527,0.46,0.516,0.457,0.331,0.325,0.329,0.283,0.66,0.821,0.712,0.78,0.969,1.04,0.954,0.944,1.22,1.06,1,1.02
NCI-H596,0.735,0.7,0.843,0.679,–,0.925,0.955,0.951,1.01,0.884,0.941,1.14,0.956,0.94,0.788,0.962,0.491,0.436,0.474,0.438
HCC-15,0.648,0.72,0.685,0.663,0.596,0.663,0.624,0.603,0.231,0.7,0.395,0.452,1.1,1.05,1.07,0.985,0.921,0.959,0.873,0.986
NCI-H2126,0.598,0.541,0.819,0.747,0.552,0.544,0.541,0.622,0.877,0.911,0.993,0.779,1.34,0.76,1.09,1.12,0.759,0.734,0.785,0.734
